21 compounds from EP2951180B1, “2,6,7,8 SUBSTITUTED PURINES AS HDM2 INHIBITORS” (Merck Sharp & Dohme Corp., priority 2013, dated 2014) can be followed below.

Where two headings read alike, the source gives them in different places.

This test concerns the target T1, HDM2 (Homo sapiens, UniProt Q00987).
T1 construct: Thioredoxin (N); made in house; host or cells: E. coli strain BL21(DE3)Rosetta
The experiment in a line: HDM2 FRET assay (inhibition of binding of FITC labeled p53-pocket peptide to HDM2). The settings on record: for IC50: read-out: FRET IC50. In outline: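 Compounds were tested in 10-point serial dilution against 0.5 nM recombinant HDM2 binding 3 nM fluorescein-labeled p53-pocket peptide. Detection used 0.25 nM terbium cryptate anti-6xHis antibody in PBS buffer containing 0.01% BSA and 0.01% Tween-20.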

The mark [1] stands for this setting: 0.5 nM HDM2 (residues 17 to 125), 3nM peptide, two hour incubation at room temperature.

T1 sequence (Q00987 17-125): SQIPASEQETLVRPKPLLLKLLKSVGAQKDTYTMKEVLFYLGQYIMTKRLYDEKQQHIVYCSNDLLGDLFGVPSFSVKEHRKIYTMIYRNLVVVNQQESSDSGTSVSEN

`CCOC1(c2nc3nc(-c4noc(=O)[nH]4)nc(N[C@H](C)C4CCC4)c3n2C[C@H]2CC[C@H](C)CC2)CCC1` [Example 22.76, 3-(6-{[(1R)-1-cyclobutylethyl]amino}-8-(1-ethoxycyclobutyl)-7-[(trans-4-methylcyclohexyl)methyl] -7H-purin-2-yl)-1,2,4-oxadiazol-5(4H)-one]: the IC50 (as a rule, the concentration at which inhibition is half-maximal) (Table 22) worked out at 4.22 nM. `CC(C)C1CCCCN1c1nc2nc(C(=O)O)nc(N[C@H](C)C3CCC3)c2n1Cc1ccc(C(F)(F)F)cc1` (stereo partly drawn) [Example 9.119, 6-{[(1R)-1-cyclobutylethyl]amino}-8-[2-(1-methylethyl)piperidin-1-yl]-7-[4-(trifluoromethyl)benzyl]-7H-purine-2-carboxylic acid]: the IC50 (Table 9) was determined as 9.16 nM. As for `CC(Nc1nc2nc(-c3noc(=O)[nH]3)nc(N[C@H](C)C3CCC3)c2n1C[C@H]1CC[C@H](C)CC1)c1ccncn1` (stereo partly drawn) [Example 11.89, 3-(6-{[(1R)-1-cyclobutylethyl]amino}-7-[(trans-4-methylcyclohexyl)methyl]-8-[(1-pyrimidin-4-ylethyl)amino]-7H-purin-2-yl)-1,2,4-oxadiazol-5(2H)-one], the IC50 (Table 11) is 13.8 nM. As for `C[C@@H](Nc1nc(-c2noc(=O)[nH]2)nc2nc(N3CCCC3Cc3cccnc3)n(Cc3ccc(C(F)(F)F)cc3)c12)C1CCC1` (stereo partly drawn) [Example 9.105, 3-(6-{[(1R)-1-cyclobutylethyl]amino}-8-[2-(pyridin-3-ylmethyl)pyrrolidin-1-yl]-7-[4-(trifluoromethyl)benzyl]-7H-purin-2-yl)-1,2,4-oxadiazol-5(4H)-one], the IC50 (Table 9) turned out to be 14 nM. With `C[C@@H](Nc1nc(C(=O)O)nc2nc(C3COCC3c3ccccc3)n(Cc3ccc(C(F)(F)F)cc3)c12)C1CCC1` (single isomer, unassigned) [Example 21.8], for the setting “Table 21”, the IC50 is 3.8 nM. As for `C[C@@H](Nc1nc(-c2noc(=O)[nH]2)nc2nc(C(C)(O)c3ccccc3)n(C[C@H]3CC[C@H](C)CC3)c12)C1CCC1` (single isomer, unassigned) [Example 22.23], where the note is “Table 22”, the IC50 worked out at 6.38 nM. `Cc1cccc(-c2nc3nc(C(=O)O)nc(N4CCCC4CC(C)C)c3n2Cc2ccc(C(F)(F)F)cc2)c1` (stereo not drawn) [Example 6.76, 8-(3-methylphenyl)-6-[2-(2-methylpropyl)pyrrolidin-1-yl]-7-[4-(trifluoromethyl)benzyl]-7H-purine-2-carboxylic acid]: the inhibition at 1 µM (read-out: inh. at 1000 nM (FRET)) turned out to be 32%. Regarding `C[C@@H](Nc1nc(C(=O)O)nc2nc(N3CCCCC3c3ccccn3)n(Cc3ccc(C(F)(F)F)cc3)c12)C1CCC1` (stereo partly drawn) [Example 9.53, 6-{[(1R)-1-cyclobutylethyl]amino}-8-(2-pyridin-2-ylpiperidin-1-yl)-7-[4-(trifluoromethyl)benzyl]-7H-purine-2-carboxylic acid], for the setting “Table 9”, the IC50 is 26.4 nM. Consider `C[C@@H]1COC[C@@H](C)N1c1nc2nc(-c3n[nH]c(=O)o3)nc(-c3cccc(Cl)c3)c2n1C[C@H]1CC[C@H](C)CC1` [Example 16.147, 5-{6-(3-chlorophenyl)-8-[(3R,5R)-3,5-dimethylmorpholin-4-yl]-7-[(trans-4-methylcyclohexyl)methyl]-7H-purin-2-yl}-1,3,4-oxadiazol-2(3H)-one], for which, under setting [1], the IC50 worked out at 5.52 nM.

For `C[C@@H](Nc1nc(-c2noc(=O)[nH]2)nc2nc([S+]([O-])c3ccccc3)n(C[C@H]3CC[C@H](C)CC3)c12)C1CCC1` (stereo partly drawn) [Example 19.2, 3-[6-{[(1R)-1-cyclobutylethyl]amino}-7-[(trans-4-methylcyclohexyl)methyl]-8-(phenylsulfinyl)-7H-purin-2-yl]-1,2,4-oxadiazol-5(4H)-one], where the note is “Table 19”, the IC50 was 1.77 nM. As for `CCC(C)CNc1nc(C(=O)O)nc2nc(-c3cccc(C)c3)n(Cc3ccc(C(F)(F)F)cc3)c12` (stereo not drawn) [Example 6.63, 6-[(2-methylbutyl)amino]-8-(3-methylphenyl)-7-[4-(trifluoromethyl)benzyl]-7H-purine-2-carboxylic acid], the IC50 (Table 6) was 719 nM. Consider `C[C@@H](Nc1nc(C(=O)O)nc2nc(N3CCCCC3Cc3ccccc3)n(Cc3ccc(C(F)(F)F)cc3)c12)C1CCC1` (stereo partly drawn) [Example 9.3, 8-(2-benzylpiperidin-1-yl)-6-{[(1R)-1-cyclobutylethyl]amino}-7-[4-(trifluoromethyl)benzyl]-7H-purine-2-carboxylic acid], for which, for the setting “Table 9”, the IC50 is 14.5 nM.

With `CC(C)c1ccnc(-c2nc3nc(C(=O)O)nc(N[C@H](c4ccccc4)C4CCC4)c3n2Cc2ccc(C(F)(F)F)cc2)c1` [Example 6.58, 6-{[(S)-cyclobutyl(phenyl)methyl]amino}-8-[4-(1-methylethyl)pyridin-2-yl]-7-[4-(trifluoromethyl)benzyl]-7H-purine-2-carboxylic acid], the half-inhibitory concentration (IC50) (Table 6) was 49.2 nM. As to `C[C@@H](Nc1nc(-c2noc(=O)[nH]2)nc2nc(C3(O)CCC3)n(C[C@H]3CC[C@H](C)CC3)c12)C1CCC1` [Example 22.67, 3-(6-{[(1R)-1-cyclobutylethyl]amino}-8-(1-hydroxycyclobutyl)-7-[(trans-4-methylcyclohexyl)methyl] -7H-purin-2-yl)-1,2,4-oxadiazol-5(2H)-one], where the note is “Table 22”, the concentration for half-maximal inhibition (IC50) is 19.3 nM.

On to `C[C@@H](Nc1nc(-c2noc(=O)[nH]2)nc2nc(N3CCCCC34CC4)n(Cc3ccc(C(F)(F)F)cc3)c12)C1CCC1` [Example 9.85, 3-{8-(4-azaspiro[2.5]oct-4-yl)-6-{[(1R)-1-cyclobutylethyl]amino}-7-[4-(trifluoromethyl)benzyl]-7H-purin-2-yl}-1,2,4-oxadiazol-5(4H)-one], for which, for the setting “Table 9”, the IC50 turned out to be 9.84 nM.

Consider `CC[C@@H]1[C@@H](C)OCCN1c1nc2nc(-c3noc(=O)[nH]3)nc(-c3cncc(Cl)c3)c2n1C[C@H]1CC[C@H](C)CC1` [Example 16.152, 3-{6-(5-chloropyridin-3-yl)-8-[(2R,3R)-3-ethyl-2-methylmorpholin-4-yl]-7-[(trans-4-methylcyclohexyl)methyl]-7H-purin-2-yl}-1,2,4-oxadiazol-5(4H)-one], for which, under setting [1], the IC50 amounted to 5.68 nM.

For `C[C@@H](Nc1nc(-c2n[nH]c(=O)o2)nc2nc(N3CCOC4CCCC43)n(C[C@H]3CC[C@H](C)CC3)c12)C1CCC1` (single isomer, unassigned) [Example 11.140], the IC50 (Table 11) came to 9.87 nM. For `Cc1cccc(-c2nc3nc(C(=O)NS(C)(=O)=O)nc(N[C@H](C)C4CC4)c3n2Cc2ccc(C(F)(F)F)cc2)c1` [Example 12.25, 6-{[(1R)-1-cyclopropylethyl]amino}-8-(3-methylphenyl)-N-(methylsulfonyl)-7-[4-(trifluoromethyl)benzyl]-7H-purine-2-carboxamide], the IC50 under setting [1] is 1070 nM.

For the compound `C[C@@H]1CNCCN1c1nc2nc(-c3noc(=O)[nH]3)nc(-c3cccc(Cl)c3)c2n1C[C@H]1CC[C@H](C)CC1` [Example 16.54, 3-{6-(3-chlorophenyl)-7-[(trans-4-methylcyclohexyl)methyl]-8-[(2R)-2-methylpiperazin-1-yl]-7H-purin-2-yl}-1,2,4-oxadiazol-5(4H)-one], the IC50 under setting [1] is 59 nM. For the compound `CC([C@H]1CC[C@H](C)CC1)n1c(N2CCOC[C@H]2C)nc2nc(-c3n[nH]c(=O)o3)nc(-c3cccc(Cl)c3)c21` (single isomer, unassigned) [Example 18.35], where the note is “Table 18”, the IC50 stood at 5.04 nM. With `C[C@H]1CC[C@H](Cn2c(N3CCOC[C@H]3c3ccccc3)nc3nc(-c4noc(=O)[nH]4)nc(-c4cc(Cl)nc(Cl)c4)c32)CC1` [Example 16.107, 3-{6-(2,6-dichloropyridin-4-yl)-7-[(trans-4-methylcyclohexyl)methyl]-8-[(3R)-3-phenylmorpholin-4-yl]-7H-purin-2-yl}-1,2,4-oxadiazol-5(4H)-one], under setting [1], the IC50 amounted to 1.66 nM.
